Laboratory results from patent publication US8653263B2 (Janssen Pharmaceutica, priority 2009, dated 2014).

Each compound was assayed against human orexin-2 receptor (Homo sapiens (Human), UniProt O43614) (assay: Human orexin 2 receptor radioligand binding ([3H]-EMPA competition)). Settings: HEK293 cells stably expressing human orexin-2 receptor; [3H]-EMPA 5 nM final; apparent Ki=IC50/(1+C/Kd), Kd=2 nM; read-out: OR 2 Ki.
human orexin-2 receptor, sequence (O43614 whole entry): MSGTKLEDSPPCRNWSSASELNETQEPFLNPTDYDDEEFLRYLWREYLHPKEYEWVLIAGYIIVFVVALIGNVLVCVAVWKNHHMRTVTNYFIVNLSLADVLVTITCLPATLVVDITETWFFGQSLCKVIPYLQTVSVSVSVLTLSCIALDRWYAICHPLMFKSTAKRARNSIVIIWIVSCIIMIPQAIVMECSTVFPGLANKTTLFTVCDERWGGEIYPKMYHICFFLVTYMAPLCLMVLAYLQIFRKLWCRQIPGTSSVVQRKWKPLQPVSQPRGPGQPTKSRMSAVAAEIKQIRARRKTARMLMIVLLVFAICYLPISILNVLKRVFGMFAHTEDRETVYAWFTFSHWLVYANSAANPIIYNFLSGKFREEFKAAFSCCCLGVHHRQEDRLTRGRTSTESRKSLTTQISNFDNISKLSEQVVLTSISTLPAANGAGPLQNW

| Compound | Ki [nM] |
| --- | --- |
| O=C(c1ccccc1-c1nnc[nH]1)N1CC2CN(c3nc4ccccc4o3)CC2C1 (stereo not drawn) [Example 86, 2-[5-{[2-(4H-1,2,4-Triazol-3-yl)phenyl]carbonyl}hexahydropyrrolo[3,4-c]pyrrol-2(1H)-yl]-1,3-benzoxazole] | 256 |
| Cc1ccnc(N2CC3CN(C(=O)c4ccccc4-c4nnc[nH]4)CC3C2)n1 (stereo not drawn) [Example 87, 2-(4-Methylpyrimidin-2-yl)-5-{[2-(4H-1,2,4-triazol-3-yl)phenyl]carbonyl}octahydro-pyrrolo[3,4-c]pyrrole] | 509 |
| CCOc1ccccc1C(=O)N1CC2CN(c3nc(C)cc(C)n3)CC2C1 (stereo not drawn) [Example 88, 2-(4,6-Dimethylpyrimidin-2-yl)-5-[(2-ethoxyphenyl)carbonyl]octahydropyrrolo[3,4-c]pyrrole] | 75 |
| Cc1cc(C)nc(N2CC3CN(C(=O)c4ccc(F)cc4C(F)(F)F)CC3C2)n1 (stereo not drawn) [Example 89, 2-(4,6-Dimethylpyrimidin-2-yl)-5-{[4-fluoro-2-(trifluoromethyl)phenyl]carbonyl}octahydropyrrolo[3,4-c]pyrrole] | 452 |
| Cc1cc(C)nc(N2CC3CN(C(=O)c4ccccc4C(C)C)CC3C2)n1 (stereo not drawn) [Example 91, 2-(4,6-Dimethylpyrimidin-2-yl)-5-{[2-(1-methylethyl)phenyl]carbonyl}octahydro-pyrrolo[3,4-c]pyrrole] | 541 |
| COc1cccc(C(=O)N2CC3CN(c4nc(C)cc(C)n4)CC3C2)c1C (stereo not drawn) [Example 92, 2-(4,6-Dimethylpyrimidin-2-yl)-5-[(3-methoxy-2-methylphenyl)carbonyl]octahydro-pyrrolo[3,4-c]pyrrole] | 766 |
| Cc1cc(C)nc(N2CC3CN(C(=O)c4cccc5ccccc45)CC3C2)n1 (stereo not drawn) [Example 93, 2-(4,6-Dimethylpyrimidin-2-yl)-5-(naphthalen-1-ylcarbonyl)octahydropyrrolo[3,4-c]pyrrole] | 64 |
| O=C(c1ccccc1-c1nnc[nH]1)N1CC2CN(c3nc4ccccc4nc3C(F)(F)F)CC2C1 (stereo not drawn) [Example 94, 2-[5-{[2-(4H-1,2,4-Triazol-3-yl)phenyl]carbonyl}hexahydropyrrolo[3,4-c]pyrrol-2(1H)-yl]-3-(trifluoromethyl)quinoxaline] | 551 |
| Cc1nc2ccccc2nc1N1CC2CN(C(=O)c3ccccc3-c3nnc[nH]3)CC2C1 (stereo not drawn) [Example 95, 2-Methyl-3-[5-{[2-(4H-1,2,4-triazol-3-yl)phenyl]carbonyl}hexahydropyrrolo[3,4-c]pyrrol-2(1H)-yl]quinoxaline] | 215 |
| Cc1cc(N2CC3CN(C(=O)c4ccccc4-c4nnc[nH]4)CC3C2)nc(C(F)(F)F)n1 (stereo not drawn) [Example 96, 2-[6-Methyl-2-(trifluoromethyl)pyrimidin-4-yl]-5-{[2-(4H-1,2,4-triazol-3-yl)phenyl]carbonyl}octahydropyrrolo[3,4-c]pyrrole] | 68 |
| Cc1ccc(-n2nccn2)c(C(=O)N2CC3CN(c4cncc(C)n4)CC3C2)c1 (stereo not drawn) [Example 100, 2-(6-Methylpyrazin-2-yl)-5-{[5-methyl-2-(2H-1,2,3-triazol-2 yl)phenyl]carbonyl}octahydropyrrolo[3,4-c]pyrrole] | 238 |
| Cc1ccc(-c2ncccn2)c(C(=O)N2CC3CN(c4cc(C(F)(F)F)nc(N(C)C)n4)CC3C2)c1 (stereo not drawn) [Example 108, N,N-Dimethyl-4-{5-[(5-methyl-2-pyrimidin-2-ylphenyl)carbonyl]hexahydropyrrolo[3,4-c]pyrrol-2(1H)-yl}-6-(trifluoromethyl)pyrimidin-2-amine] | 57 |
| CN(C)c1nc(N2CC3CN(C(=O)c4cc(F)ccc4-n4nccn4)CC3C2)cc(C(F)(F)F)n1 (stereo not drawn) [Example 110, 4-[5-{[5-Fluoro-2-(2H-1,2,3-triazol-2-yl)phenyl]carbonyl}hexahydropyrrolo[3,4-c]pyrrol-2(1H)-yl]-N,N-dimethyl-6-(trifluoromethyl)pyrimidin-2-amine] | 52 |
| Cc1ccc(-c2ncccn2)c(C(=O)N2CC3CN(c4cc(C)nc(C(F)(F)F)n4)CC3C2)c1 (stereo not drawn) [Example 112, 2-[(5-Methyl-2-pyrimidin-2-ylphenyl)carbonyl]-5-[6-methyl-2-(trifluoromethyl)pyrimidin-4-yl]octahydropyrrolo[3,4-c]pyrrole] | 95 |
| Cc1cc(N2CC3CN(C(=O)c4cc(F)ccc4-n4nccn4)CC3C2)nc(C(F)(F)F)n1 (stereo not drawn) [Example 114, 2-{[5-Fluoro-2-(2H-1,2,3-triazol-2-yl)phenyl]carbonyl}-5-[6-methyl-2-(trifluoromethyl)pyrimidin-4-yl]octahydropyrrolo[3,4-c]pyrrole] | 224 |
| Cc1cc(N2CC3CN(C(=O)c4cc(F)ccc4-n4nccn4)CC3C2)nc(C)n1 (stereo not drawn) [Example 115, [5-(2,6-Dimethyl-pyrimidin-4-yl)-hexahydro-pyrrolo[3,4-c]pyrrol-2-yl]-(5-fluoro-2-[1,2,3]triazol-2-yl-phenyl)-methanone] | 5000 |
| Cc1cc(N(C)C)nc(N2CC3CN(C(=O)c4ccccc4-n4nccn4)CC3C2)n1 (stereo not drawn) [Example 119, N,N,6-Trimethyl-2-[5-{[2-(2H-1,2,3-triazol-2-yl)phenyl]carbonyl}hexahydropyrrolo[3,4-c]pyrrol-2(1H)-yl]pyrimidin-4-amine] | 51 |
| Cc1cc(N2CC3CN(C(=O)c4ccccc4-n4nccn4)CC3C2)nc(N(C)C)n1 (stereo not drawn) [Example 120, N,N,4-Trimethyl-6-[5-{[2-(2H-1,2,3-triazol-2-yl)phenyl]carbonyl}hexahydropyrrolo[3,4-c]pyrrol-2(1H)-yl]pyrimidin-2-amine] | 71 |

More lines, in order of falling Ki, values ahead:

| Ki [nM] | Compound |
| --- | --- |
| 50 | O=C(c1cc(F)ccc1-c1ncccn1)N1CC2CN(c3nccc(-c4ccccc4)n3)CC2C1 (stereo not drawn) [Example 113, 2-[(5-Fluoro-2-pyrimidin-2-ylphenyl)carbonyl]-5-(4-phenylpyrimidin-2-yl)octahydropyrrolo[3,4-c]pyrrole] |
| 48 | Cc1cnc(C)c(N2CC3CN(C(=O)c4c(F)cccc4-n4nccn4)CC3C2)n1 (stereo not drawn) [Example 101, 2-(3,6-Dimethylpyrazin-2-yl)-5-{[2-fluoro-6-(2H-1,2,3-triazol-2-yl)phenyl]carbonyl}octahydropyrrolo[3,4-c]pyrrole] |
| 46 | CN(C)c1nc(N2CC3CN(C(=O)c4cc(F)ccc4-c4ncccn4)CC3C2)cc(C(F)(F)F)n1 (stereo not drawn) [Example 109, 4-{5-[(5-Fluoro-2-pyrimidin-2-ylphenyl)carbonyl]hexahydropyrrolo[3,4-c]pyrrol-2(1H)-yl}-N,N-dimethyl-6-(trifluoromethyl)pyrimidin-2-amine] |
| 42 | Cc1cnc(C)c(N2CC3CN(C(=O)c4ccc(F)cc4-n4nccn4)CC3C2)n1 (stereo not drawn) [Example 104, 2-(3,6-Dimethylpyrazin-2-yl)-5-{[4-fluoro-2-(2H-1,2,3-triazol-2-yl)phenyl]carbonyl}octahydropyrrolo[3,4-c]pyrrole] |
| 38 | Cc1cc(C)nc(N2CC3CN(C(=O)c4ccc(F)c5ccccc45)CC3C2)n1 (stereo not drawn) [Example 90, 2-(4,6-Dimethylpyrimidin-2-yl)-5-[(4-fluoronaphthalen-1-yl)carbonyl]octahydro-pyrrolo[3,4-c]pyrrole] |
| 38 | Cc1ccc(-c2ncccn2)c(C(=O)N2CC3CN(c4nc(C)cnc4C)CC3C2)c1 (stereo not drawn) [Example 103, 2-(3,6-Dimethylpyrazin-2-yl)-5-[(5-methyl-2-pyrimidin-2-ylphenyl)carbonyl]octahydropyrrolo[3,4-c]pyrrole] |
| 28 | Cc1cc(N2CC3CN(C(=O)c4c(F)cccc4-n4nccn4)CC3C2)nc(C(F)(F)F)n1 (stereo not drawn) [Example 98, 2-{[2-Fluoro-6-(2H-1,2,3-triazol-2-yl)phenyl]carbonyl}-5-[6-methyl-2-(trifluoromethyl)pyrimidin-4-yl]octahydropyrrolo[3,4-c]pyrrole] |
| 28 | CN(C)c1nc(N2CC3CN(C(=O)c4ccc(F)cc4-n4nccn4)CC3C2)cc(C(F)(F)F)n1 (stereo not drawn) [Example 111, [5-(2-Dimethylamino-6-trifluoromethyl-pyrimidin-4-yl)-hexahydro-pyrrolo[3,4-c]pyrrol-2-yl]-(4-fluoro-2-[1,2,3]triazol-2-yl-phenyl)-methanone] |
| 26 | CN(C)c1nc(N2CC3CN(C(=O)c4c(F)cccc4-n4nccn4)CC3C2)cc(C(F)(F)F)n1 (stereo not drawn) [Example 106, 4-[5-{[2-Fluoro-6-(2H-1,2,3-triazol-2-yl)phenyl]carbonyl}hexahydropyrrolo[3,4-c]pyrrol-2(1H)-yl]-N,N-dimethyl-6-(trifluoromethyl)pyrimidin-2-amine] |
| 25 | Cc1cc(N2CC3CN(C(=O)c4ccccc4-n4nccn4)CC3C2)nc(C(F)(F)F)n1 (stereo not drawn) [Example 97, 2-[6-Methyl-2-(trifluoromethyl)pyrimidin-4-yl]-5-{[2-(2H-1,2,3-triazol-2-yl)phenyl]carbonyl}octahydropyrrolo[3,4-c]pyrrole] |
| 24 | Cc1cc(N2CC3CN(C(=O)c4c(F)cccc4-c4ncccn4)CC3C2)nc(C(F)(F)F)n1 (stereo not drawn) [Example 117, 2-[(2-Fluoro-6-pyrimidin-2-ylphenyl)carbonyl]-5-[6-methyl-2-(trifluoromethyl)pyrimidin-4-yl]octahydropyrrolo[3,4-c]pyrrole] |
| 22 | CN(C)c1nc(N2CC3CN(C(=O)c4c(F)cccc4-c4ncccn4)CC3C2)cc(C(F)(F)F)n1 (stereo not drawn) [Example 116, 4-{5-[(2-Fluoro-6-pyrimidin-2-ylphenyl)carbonyl]hexahydropyrrolo[3,4-c]pyrrol-2(1H)-yl}-N,N-dimethyl-6-(trifluoromethyl)pyrimidin-2-amine] |
| 17 | Cc1ccc(-c2ncccn2)c(C(=O)N2CC3CN(c4nc(C)cc(C)n4)CC3C2)c1 (stereo not drawn) [Example 102, 2-(4,6-Dimethylpyrimidin-2-yl)-5-[(5-methyl-2-pyrimidin-2-ylphenyl)carbonyl]octahydropyrrolo[3,4-c]pyrrole] |
| 15 | Cc1cc(N2CC3CN(C(=O)c4ccc(F)cc4-n4nccn4)CC3C2)nc(C(F)(F)F)n1 (stereo not drawn) [Example 99, 2-{[4-Fluoro-2-(2H-1,2,3-triazol-2-yl)phenyl]carbonyl}-5-[6-methyl-2-(trifluoromethyl)pyrimidin-4-yl]octahydropyrrolo[3,4-c]pyrrole] |
| 15 | CN(C)c1nc(N2CC3CN(C(=O)c4ccccc4-n4nccn4)CC3C2)cc(C(F)(F)F)n1 (stereo not drawn) [Example 121, N,N-Dimethyl-4-[5-{[2-(2H-1,2,3-triazol-2-yl)phenyl]carbonyl}hexahydropyrrolo[3,4-c]pyrrol-2(1H)-yl]-6-(trifluoromethyl)pyrimidin-2-amine] |
